Test system: osteoclast pregenitor cells
Assay: Inhibition rates of furan derivatives versus osteoclast formation (TRAP staining)
Type: cell-based, mice
Details: TRAP-positive multinucleated cells, untreated control set as 100%
Description: First, bone marrow cells were isolated, as follow. After sacrificing 7-9 week female mice by cervical dislocation, femur and tibia were excised aseptically while removing attached soft tissues. After cutting both ends of long bones, 1 ml of an enzyme solution, containing 0.1% collagenase (Gibco), 0.05% trypsin and 0.5 mM EDTA (Gibco), was injected to the bone marrow cavity at one end using a syringe with a 26-guage needle, and bone marrow was then collected. After shaking the recovered bone marrow for 30 min, bone marrow cells were collected, and cultured in α-minimum essential medium (α-MEM) supplemented with 10% FBS for 24 hrs. Then, non-adherent cells were collected, which are osteoclast pregenitors, aliquotted onto culture plates at a density of 2×10^5 cells per well, and cultured for 8 days in α-MEM supplemented with 20 ng/ml of macrophage-colony stimulating factor (M-CSF, Peprotech, USA) and 30 ng/ml RANKL (Peprotech, USA). During the 8 days of culturing, the cells were treated with the Compound 1. Thereafter, osteoclast formation was investigated by fixing the cultured cells and then carrying out TRAP staining, as described in the following Experimental Example 2.2. In addition, resorption activity of osteoclasts was investigated by measuring the absorption area after removing osteoclasts in cultures in calcium phosphate-coated plates, as described in Experimental Example 2.3, below.
After cell culture, the adherent cells were washed with PBS, and TRAP staining was performed, as follows. After being fixed with citrate-acetate-formaldehyde for 5 min, the cells were incubated for 1 hr in acetate buffer (prewarmed at 37° C., pH 5.0) containing naphthol AS-BI phosphate, fast Garnet GBC and 7 mM tartrate buffer (pH 5.0). TRAP-positive multinucleated cells having 3 or more nuclei were considered as osteoclasts.
Osteoclast pregenitor cells were isolated, and their differentiation to mature osteoclasts was induced, according to the same method as in the Experimental Example 2-1, while treated with each of the furan derivatives of the present invention. According to the same method as in the Experimental Example 2-2, TRAP staining performed, and TRAP-positive multinucleated cells were counted. An inhibition rate of each furan derivative against osteoclast formation was expressed as percentage, wherein the number of stained cells in a control not treated the furan derivative was arbitrarily set as 100% (Tables 14 to 16).

SMILES | Inhibition rate against osteoclast formation, % (0.1 μM) | Inhibition rate against osteoclast formation, % (1 μM) | Inhibition rate against osteoclast formation, % (10 μM)
CCCc1ccc(OCc2ccc(C(=O)Nc3cc(Cl)ccc3Cl)o2)cc1 [Compound 170] | 0% | 0% | 16.31%
COc1ccc(C)cc1NC(=O)c1ccc(COc2cccc(Cl)c2)o1 [Compound 171] | 0% | 0% | 0.42%
Cc1cc(OCc2ccc(C(=O)Nc3cccc(C)c3C)o2)ccc1Cl [Compound 172] | 0% | 0% | 11.08%
Cc1cc(OCc2ccc(C(=O)Nc3ccc(Cl)cc3)o2)ccc1Cl [Compound 173] | 0% | 0% | 8.03%
COc1ccccc1OCc1ccc(C(=O)Nc2ccccc2Cl)o1 [Compound 174] | 0% | 0% | 14.11%
COc1ccccc1OCc1ccc(C(=O)Nc2ccc(C)c(C)c2)o1 [Compound 175] | 0% | 0% | 33.33%
CCCc1ccc(OCc2ccc(C(=O)Nc3ccc(F)cc3F)o2)c(OC)c1 [Compound 176] | 0% | 0% | 15.56%
Cc1cc(C)cc(OCc2ccc(C(=O)Nc3ccccc3F)o2)c1 [Compound 177] | 0% | 0% | 11.03%
O=C(Nc1ccccc1F)c1ccc(COc2ccc(Cl)cc2)o1 [Compound 178] | 0% | 0% | 14.09%
Cc1cccc(C)c1NC(=O)c1ccc(COc2ccc(Cl)cc2)o1 [Compound 179] | 0% | 0% | 34.81%
COC(=O)c1ccccc1NC(=O)c1ccc(COc2ccc(C)c(C)c2)o1 [Compound 180] | 0% | 0% | 8.15%
O=C(Nc1cc(C(F)(F)F)ccc1Cl)c1ccc(COc2ccc(Cl)cc2)o1 [Compound 181] | 0% | 0% | 56.96%
COc1cc([N+](=O)[O-])ccc1NC(=O)c1ccc(COc2ccc(Cl)cc2)o1 [Compound 182] | 0% | 0% | 4.34%
O=C(Nc1ccccc1[N+](=O)[O-])c1ccc(COc2ccccc2Cl)o1 [Compound 183] | 0% | 0% | 57.39%
O=C(Nc1ccc(F)cc1F)c1ccc(COc2c(F)c(F)cc(F)c2F)o1 [Compound 185] | 0% | 0% | 13.64%
Cc1ccc(OCc2ccc(C(=O)Nc3ccc(F)c(F)c3)o2)cc1C [Compound 186] | 0% | 0% | 21.09%
CC(=O)Nc1cccc(NC(=O)c2ccc(COc3c(F)c(F)c(F)c(F)c3F)o2)c1 [Compound 187] | – | 37.05% | 36.74%
COc1ccc(NC(=O)c2ccc(COc3ccccc3Br)o2)c(OC)c1 [Compound 188] | 0% | 0% | 7.6%
COc1ccccc1NC(=O)c1ccc(COc2ccc(C(C)(C)C)cc2)o1 [Compound 189] | 0% | 0% | 48.99%
O=C(Nc1ccc(I)cc1)c1ccc(COc2ccccc2Br)o1 [Compound 190] | 0% | 0% | 5.12%
O=C(Nc1cccc([N+](=O)[O-])c1)c1ccc(COc2ccc(I)cc2)o1 [Compound 191] | 0% | 0% | 8.06%

— patent US20060004088A1, “Furan derivatives for preventing and curing osteoporosis and pharmaceutical compositions containing the same” (OCT INC., priority 2002, published 2006)
